Test results taken from patent US20080214675A1, “Hydroxybenzoic Acid Amides and the Use Thereof For Masking Bitter Taste” (SYMRISE GMBH & CO. KG, priority 2004, published 2008).
Structures can show the parent of a compound that is named as a salt.

Key:
[1] = examined in the context of various sweeteners; cited from earlier work
[2] = Bitterness reduction in a bitter principle solution (expert panel rating); format: in vivo; conditions: for % reduction in bitterness impression / Testers positive (number of testers who could detect a masking effect) / Bitterness impression (1-10) with: 500 ppm caffeine; for Bitterness impression (1-10) with: error = 95% confidence interval
Protocol: To quantify the reduction in the bitterness impression, the bitterness of a 500 ppm caffeine or salicin solution and a sample containing 500 ppm of caffeine or salicin and a varying amount of the exemplary compound was determined by a group of experts (rating 0 [not bitter] to 10 [extremely bitter]). The evaluation was made as a calculation of the reduction (in %) of the bitterness impression from the average values for the ratings of the caffeine or salicin solution and the solutions containing caffeine or salicin and the exemplary compound. 2,4-Dihydroxybenzoic acid (2,4-DHB) from U.S. Pat. No. 5,643,941 was used as a comparison.

[3] = Strengthening the sweetness of a sugar solution (expert panel rating); format: in vivo; conditions: 5% sucrose; for Sweetness impression (1-10) with: error = standard deviation
Protocol: To quantify the strengthening of the sweetness impression, the sweetness of a 5% sucrose solution and a sample containing […] and an amount of the exemplary compound was determined by a group of experts (rating 0 [not sweet] to 10 [extremely sweet]). The evaluation was made as a calculation of the strengthening (in %) of the sweetness impression from the average values for the ratings of the sucrose solution and the solutions containing sucrose and the exemplary compound. Vanillin was used as a comparison as a typical aromatic substance described as sweet.

[4] = Strengthening the sweetness of a yogurt (expert panel rating); format: in vivo
Protocol: To quantify the strengthening of the sweetness impression, the sweetness of a low-fat (0.1%) commercial yogurt (Optiwell) containing 5% sucrose and of a sample containing […] and an amount of the exemplary compound was determined by a group of experts (rating 0 [not sweet] to 10 [extremely sweet]). The evaluation was made as a calculation of the strengthening (in %) of the sweetness impression from the average values for the ratings of the yogurt containing sucrose and the yogurt containing sucrose and the exemplary compound.

[5] = 200 ppm substance, 5% sucrose, low-fat yogurt

SMILES | % reduction in bitterness impression ([2]; 100 ppm substance) | Testers positive (number of testers who could detect a masking effect) ([2]; 100 ppm substance) | Bitterness impression (1-10) with ([2]; 100 ppm substance) | also measured
COc1ccc(CNC(=O)c2c(O)cc(O)cc2O)cc1O [2,4,6-trihydroxybenzoic acid-N-(3-hydroxy-4-methoxybenzyl)amide] |  |  |  | taste [1]: tasteless
O=C(O)c1ccc(O)cc1O [2,4-DHB, 2,4-Dihydroxybenzoic acid, reference compound] | 3% | 9 | 5.0 ± 1.0 | 
COc1cc(CNC(=O)c2ccc(O)cc2O)ccc1O [Example 1, 2,4-dihydroxybenzoic acid-N-(4-hydroxy-3-methoxybenzyl)amide] |  |  |  | % reduction in bitterness impression ([2]; 20 ppm substance): 29%, p < 0.05; Testers positive (number of testers who could detect a masking effect) ([2]; 20 ppm substance): 11; Bitterness impression (1-10) with ([2]; 20 ppm substance): 4.5 ± 0.6; % strengthening of sweetness impression ([3]; 100 ppm substance): 7.2%; Testers positive (number of testers who could detect a strengthening effect) ([3]; 100 ppm substance): 7; Sweetness impression (1-10) with ([3]; 100 ppm substance): 5.6 ± 1.7; % strengthening of sweetness impression [4, 5]: 26.5%; Testers positive (number of testers who could detect a strengthening effect) [4, 5]: 12; Sweetness impression (1-10) with ([4]; 200 ppm substance, 5% sucrose, low-fat yogurt, error = standard deviation): 5.4 ± 1.5; descriptors of the yogurt ([4]; yogurt containing the compound): more fullness, less acidic, soft, creamy; preference of the yogurt ([4]; yogurt containing the compound vs yogurt with sucrose only): preferred
COc1cc(CNC(=O)c2c(O)cc(O)cc2O)ccc1O [Example 2, 2,4,6-Trihydroxybenzoic acid-N-(4-hydroxy-3-methoxybenzyl)amide] | 24%, p < 0.05 | 8 | 5.1 ± 0.9 | 
COc1cc(CNC(=O)c2ccccc2O)ccc1O [Example 3, 2-Hydroxybenzoic acid-N-(4-hydroxy-3-methoxybenzyl)amide] | 23%, p < 0.05 | 12 | 4.1 ± 0.9 | 
COc1cc(CNC(=O)c2ccc(O)cc2)ccc1O [Example 4, 4-Hydroxybenzoic acid-N-(4-hydroxy-3-methoxybenzyl)amide] | 26%, p < 0.05 | 9 | 4.5 ± 0.5 | 
COc1cc(CNC(=O)c2ccc(O)cc2O)ccc1O [Example 5, 2,4-Dihydroxybenzoic acid-N-4-hydroxy-3-methoxybenzylamide monosodium salt] | 32%, p < 0.05 | 13 | 4.1 ± 1.0 | 
COc1cc(CCNC(=O)c2ccc(O)cc2O)ccc1O [Example 6, 2,4-Dihydroxybenzoic acid-N-2-(4-hydroxy-3-methoxyphenyl)ethylamide] | 20%, p < 0.05 | 9 | 3.7 ± 0.8 | 
COc1ccc(CNC(=O)c2ccc(O)cc2O)cc1O [Example 9, 2,4-Dihydroxybenzoic acid-N-3-hydroxy-4-methoxybenzylamide, reference compound] | 11% |  | 3.9 ± 0.8 | change in the bitterness impression (bitterness-masking effect) ([2]; application example 1): No statistically significant change
COc1cc(C=O)ccc1O [vanillin, Vanillin, reference compound] |  |  |  | % strengthening of sweetness impression ([3]; 600 ppb substance): −3%; Testers positive (number of testers who could detect a strengthening effect) ([3]; 600 ppb substance): 5; Sweetness impression (1-10) with ([3]; 600 ppb substance): 6.0 ± 1.1
